# Data reported in patent publication US10272056B2, “Treatment for mitochondrial diseases” (The George Washington University a Congressionally …, priority 2015, dated 2019).
# Key:
# [1] = test system: MELAS fibroblasts; assay: Mitochondrial mass, morphology and networking (MTG live cell confocal analysis); format: cell-based, human; settings: three-day exposure; NaBt 2.5 mM, TBN 1.5 mM, AN9 300 μM
# Text: FIG. 17A-17C are images from microscopy and graphs showing that butyrates rescue the mitochondrial phenotype in MELAS fibroblasts. (A) Confocal analysis of healthy and MELAS fibroblasts treated as indicated and labeled with the MTG dye; scale bar=10 (B) Analysis of the mitochondrial mass; n=3 (60 cells per experiment; ^‡p<0.05, unpaired T-test *p<0.05, paired T-test). (C) Analysis of Δψm (^‡p<0.05, unpaired T-test; *p<0.05, paired T-test).
# Butyrates rescue the mitochondrial mass, morphology, networking, membrane potential, and cellular ATP levels in MELAS fibroblasts. Skin fibroblasts from two MELAS patients and from a healthy subject as a control were used. Dose-dependent analyses of butyrates to determine their best concentrations for eliciting an optimal mitochondrial response without cellular toxicity was performed. Healthy and MELAS fibroblasts were treated with PBS, NaBt (2.5 mM), TBN (1.5 mM), or AN9 (300 μM) for three days before labeling with the MTG dye for live cell confocal analysis.
# Butyrates rescue the mitochondrial mass, morphology, networking, and membrane potential in MELAS fibroblasts. Skin fibroblasts from two MELAS patients and from a healthy subject as a control were used. Dose-dependent analyses of butyrates was performed to determine their best concentrations for eliciting an optimal mitochondrial response without cellular toxicity. Healthy and MELAS fibroblasts were treated with PBS, NaBt (2.5 mM), TBN (1.5 mM), or AN9 (300 μM) for three days before labeling with the MTG dye for live cell confocal analysis.
# [2] = test system: E17.5 hippocampal neurons; assay: Cellular viability of neurons exposed to NaBt; format: cell-based; settings: 2 mM NaBt
# [3] = test system: E17.5 neurons; assay: In vivo mitochondrial mass of E17.5 brains from treated pregnant dams; parameters: species or system mice; settings: E12.5 pregnant dams, NaBt 1.2 g/Kg intraperitoneally vs PBS
# Text: FIG. 7A-7F show images from microscopy and graphs showing NaBt increases mitochondrial mass. (A) Live cell confocal microscopy of E17.5 hippocampal neurons; high magnification in inset; scale bar=5 (B) Quantitative analysis of the mitochondrial biomass in E17.5 neurons using an anti-CoxVα antibody; *p<0.001. (C) Live cell confocal microscopy of PC12-ND6 cells; high magnification in inset; scale bar=5 (D) Flow cytometric analysis of mitochondrial mass; *p<0.001. (E) Confocal microscopy of E17.5 brains from E12.5 pregnant dams treated with PBS (sham) or NaBt; scale bar=20 (F) Quantitative analysis of mitochondrial mass; *p<0.001.
# Experimental paradigms. These are: 1) E17.5 differentiating hippocampal neurons expressing NeuroD6; 2) the PC12-NeuroD6 neuronal cell line recapitulating the early stages of differentiation; 3) E12.5 timed-pregnant dams treated intraperitoneally with NaBt (1.2 g/Kg) or PBS; and 4) cultured primary skin fibroblasts isolated from two MELAS patients and a healthy subject. Patient fibroblasts are the most suitable system to investigate the therapeutic potential of the butyrate derivatives (NaBt, TBN, and AN9) within the context of the patient's nuclear background and heteroplasmy, as MELAS animal models have not been generated due to polyploidy of the mt genome, heteroplasmic load, and influence of the nuclear background on MELAS phenotypic variability. […]
# [4] = test system: E17.5 hippocampal progenitor cells; assay: Neuronal differentiation to stage 3 (β-III tubulin immunostaining); format: cell-based; settings: NaBt 2 mM at 1DIV, read at 3DIV, no glial feeder layer; untreated 20%
# Text: FIG. 12A-12B are images from microscopy and a graph showing that NaBt concomitantly increases the mitochondrial biomass of E17.5 hippocampal progenitor cells and their neuronal differentiation. (A) High-resolution tile-stacked confocal micrographs of untreated and NaBt-treated E17.5 hippocampal neurons labeled with β-III tubulin (red) and nuclear counterstain DAPI (blue) at 3DIV with insets showing high magnification of the neuritic network. Scale bar represents 20 μm. (B) Graph of percent of β-III tubulin^+ cells having reached the neuronal stage 3. Mean±S.D. (n=250 cells for each condition; *p=0.0001).
# Sodium butyrate-mediated increase in mitochondrial mass correlates with accelerated and enhanced neuronal differentiation of hippocampal progenitor cells. Since broad spectrum HDACis induce neuronal differentiation of adult neural progenitors (reviewed by Lee and Lee, 2010), it was assessed whether increase in mitochondrial mass upon NaBt exposure could accelerate the timing of the neuronal developmental stages of cultured E17.5 hippocampal progenitor cells in the absence of astroglial trophic support. To test this hypothesis, the well-defined chronology of the distinct phenotypic differentiation stages of cultured embryonic hippocampal cells was relied on. […] At 3DIV, cells were immunostained for the pan-neuronal marker β-III tubulin to quantify the percent of cells at stage 3.
# [5] = test system: neuronal cells; assay: Electron microscopy of mitochondria; format: cell-based; settings: NaBt-treated vs control cells
# Protocol: FIG. 9A-9C are graphs and images from microscopy showing that NaBt enhances mitochondrial bioenergetics. (A) Flow cytometric analysis of Δψm; *p<0.001. (B) ATP levels in live cells using a Mg^2+-based assay; *p<0.001. (C) Electron microscopy of mitochondria in control and NaBt-treated cells; scale bar=200 nm.
# NaBt increases mitochondrial membrane potential (Δψm) and ATP levels. The MTR-based data raised the question: could NaBt also enhance mitochondrial bioenergetics? Δψm was assessed by live cell confocal microscopy and flow cytometry using the TMRM dye, which accumulates in the mitochondrial matrix in a Δψm-dependent fashion. A 1.5-fold increase in Δψm in NaBt-treated cells was observed (FIG. 9A). To test whether enhanced Δψm led to increased ATP output, ATP levels were monitored using the live cell Mg^2+-based ATP assay, which is compatible with the TMRM dye, allowing simultaneous recordings. A 1.6-fold increase in ATP levels in NaBt-treated cells was observed (FIG. 9B), in line with the MTR- and TMRM-based findings and the elongated mitochondrial morphology.
structure (smiles),measurement,setting,value
"CCCC(=O)[O-].[Na+] [NaBt, sodium butyrate]","mitochondrial mass, morphology, and networking",[1],"restored normal mitochondrial mass, morphology, and networking"
same,cellular viability,[2],without affecting cellular viability
same,increase of in vivo mitochondrial mass of E17.5 neurons,[3],1.6 fold
same,percent of neurons advanced to stage 3,[4],90%
same,mitochondrial micro-architecture,[5],increased numbers of elongated cristae
